In ChEMBL document CHEMBL1201862, “PubChem BioAssay data set” (2004):
Active and inactive are the calls of the source.

Assays:
[1] = toxicity toward HepG2 liver cells – cell-based, plate reader, cherry-pick, antagonist series, cytotoxicity control, dose response (AID 743416); format: functional
[2] = A549 cell cytotoxicity, dose response, cytotoxicity control, plate reader, cherry-pick, antagonist series (AID 743412); format: functional, cell-based
[3] = viability loss in HEK293 cells – cell-based, plate reader, cherry-picked samples, cytotoxicity control, dose response (AID 743446); format: functional
Protein RecA = molecular target: T1, Protein RecA (Mycobacterium tuberculosis, UniProt P9WHJ3); experiment: Fluorescence Cell-Free Homogeneous Dose Retest to Identify Inhibitors of RecA-Intein Splicing Activity. [Related pubchem assays (depositor defined):AID2097, AID2223, AID489010, AID492950]; format: functional
T1 sequence (P9WHJ3 whole entry): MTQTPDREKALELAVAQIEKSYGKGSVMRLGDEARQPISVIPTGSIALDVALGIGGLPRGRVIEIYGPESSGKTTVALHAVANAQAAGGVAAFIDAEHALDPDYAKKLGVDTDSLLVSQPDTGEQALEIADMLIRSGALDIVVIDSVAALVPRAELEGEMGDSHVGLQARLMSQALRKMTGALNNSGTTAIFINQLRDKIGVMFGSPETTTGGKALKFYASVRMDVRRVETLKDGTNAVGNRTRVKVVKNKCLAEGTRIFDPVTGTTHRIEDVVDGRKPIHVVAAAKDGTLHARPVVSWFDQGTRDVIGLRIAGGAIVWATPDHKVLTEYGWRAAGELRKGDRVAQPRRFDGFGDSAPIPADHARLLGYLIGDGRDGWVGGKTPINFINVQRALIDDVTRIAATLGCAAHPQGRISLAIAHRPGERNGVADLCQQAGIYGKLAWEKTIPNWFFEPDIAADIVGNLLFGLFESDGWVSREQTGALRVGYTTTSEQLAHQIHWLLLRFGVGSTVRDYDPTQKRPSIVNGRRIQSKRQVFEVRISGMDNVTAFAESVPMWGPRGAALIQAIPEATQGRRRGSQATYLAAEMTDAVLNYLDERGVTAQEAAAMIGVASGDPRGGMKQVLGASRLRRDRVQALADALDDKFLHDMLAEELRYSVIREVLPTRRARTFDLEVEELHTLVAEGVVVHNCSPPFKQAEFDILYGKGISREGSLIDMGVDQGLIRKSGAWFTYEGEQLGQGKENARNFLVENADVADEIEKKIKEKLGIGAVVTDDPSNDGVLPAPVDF

[4] = blockers of bursicon-stimulated LGR2 cAMP reporter – cell-based, HEK293, CRE-luciferase reporter, cherry pick, set 2, dose response (AID 743343); format: functional;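 note: transfected cells were stimulated with diluted bursicon conditioned medium after compound addition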
[5] = molecular target: T2, Heat shock factor protein 1 (Mus musculus, UniProt P38532); experiment: enhancement of HSF1-driven luciferase signal – cell-based, NIH3T3, luminescence, dose retest, confirmation (AID 435004); format: functional;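 note: stress induced by proteasome inhibitor MG132 added 30 min after compound; luciferase reporter driven by HSF1 response element in NIH3T3 cells; actives raise luminescence as potentiators of the MG132 stress response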
T2 sequence (P38532 whole entry): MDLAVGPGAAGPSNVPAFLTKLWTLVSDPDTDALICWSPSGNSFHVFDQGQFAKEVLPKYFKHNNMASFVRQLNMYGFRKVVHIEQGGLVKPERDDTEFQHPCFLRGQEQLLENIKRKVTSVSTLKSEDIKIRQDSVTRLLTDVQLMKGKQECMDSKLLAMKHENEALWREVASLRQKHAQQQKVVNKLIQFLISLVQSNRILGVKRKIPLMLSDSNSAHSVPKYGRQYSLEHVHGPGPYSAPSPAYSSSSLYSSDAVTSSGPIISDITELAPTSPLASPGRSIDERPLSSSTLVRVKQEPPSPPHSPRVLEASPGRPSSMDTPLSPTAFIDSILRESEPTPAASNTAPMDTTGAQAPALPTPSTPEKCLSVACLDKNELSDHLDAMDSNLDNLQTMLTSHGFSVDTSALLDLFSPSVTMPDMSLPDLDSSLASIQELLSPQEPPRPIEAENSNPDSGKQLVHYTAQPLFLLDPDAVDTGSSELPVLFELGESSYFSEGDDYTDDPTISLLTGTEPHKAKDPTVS

[6] = molecular target: T3, Replicative DNA helicase DnaB (Mycobacterium tuberculosis, UniProt P9WMR3); experiment: DnaB intein splicing inhibitors, dose response, biochemical, cell-free fluorescence (AID 449749); format: functional
T3 sequence (P9WMR3 whole entry): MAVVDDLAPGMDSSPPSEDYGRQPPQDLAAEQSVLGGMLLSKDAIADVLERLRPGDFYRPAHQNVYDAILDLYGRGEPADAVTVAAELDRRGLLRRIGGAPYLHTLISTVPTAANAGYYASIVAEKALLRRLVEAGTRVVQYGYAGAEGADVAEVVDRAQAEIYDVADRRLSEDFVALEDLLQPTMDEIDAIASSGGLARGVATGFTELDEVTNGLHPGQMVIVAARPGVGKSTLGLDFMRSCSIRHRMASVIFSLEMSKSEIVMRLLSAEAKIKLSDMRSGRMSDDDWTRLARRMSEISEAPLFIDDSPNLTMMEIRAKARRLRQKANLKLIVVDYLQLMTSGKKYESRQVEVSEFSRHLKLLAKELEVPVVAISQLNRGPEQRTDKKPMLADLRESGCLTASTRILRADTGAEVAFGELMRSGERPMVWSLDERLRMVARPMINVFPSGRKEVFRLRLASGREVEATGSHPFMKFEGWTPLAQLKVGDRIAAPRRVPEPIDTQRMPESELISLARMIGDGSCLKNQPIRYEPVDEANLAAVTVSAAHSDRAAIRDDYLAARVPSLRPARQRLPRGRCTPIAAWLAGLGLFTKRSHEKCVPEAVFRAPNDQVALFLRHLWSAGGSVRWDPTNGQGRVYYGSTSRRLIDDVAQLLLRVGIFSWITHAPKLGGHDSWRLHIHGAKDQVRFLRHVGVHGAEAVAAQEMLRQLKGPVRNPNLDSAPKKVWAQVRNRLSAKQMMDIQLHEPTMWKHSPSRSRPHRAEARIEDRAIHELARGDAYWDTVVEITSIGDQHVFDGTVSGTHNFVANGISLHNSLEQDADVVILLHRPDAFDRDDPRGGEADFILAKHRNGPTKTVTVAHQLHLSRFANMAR

[7] = HEK-293T viability loss after treatment – luminescence, T-cell screen hits, cytotoxicity control for TCR NF-kB inhibitor project, dose response (AID 489026); format: functional, cell-based;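 note: cells exposed to compound about 14 hours before the viability readout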
Paired box protein Pax-8 = Paired box protein Pax-8 (Homo sapiens, UniProt Q06710); experiment: PAX8 transcriptional activity inhibition in RMG-I – RMG-I cells, luciferase, cherry-pick, dose response (AID 687027); format: functional, cell-based;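 note: luciferase reporter driven by Pax8 target thyroperoxidase promoter measured by SteadyGlo luminescence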
Sequence of Paired box protein Pax-8 (Q06710 whole entry): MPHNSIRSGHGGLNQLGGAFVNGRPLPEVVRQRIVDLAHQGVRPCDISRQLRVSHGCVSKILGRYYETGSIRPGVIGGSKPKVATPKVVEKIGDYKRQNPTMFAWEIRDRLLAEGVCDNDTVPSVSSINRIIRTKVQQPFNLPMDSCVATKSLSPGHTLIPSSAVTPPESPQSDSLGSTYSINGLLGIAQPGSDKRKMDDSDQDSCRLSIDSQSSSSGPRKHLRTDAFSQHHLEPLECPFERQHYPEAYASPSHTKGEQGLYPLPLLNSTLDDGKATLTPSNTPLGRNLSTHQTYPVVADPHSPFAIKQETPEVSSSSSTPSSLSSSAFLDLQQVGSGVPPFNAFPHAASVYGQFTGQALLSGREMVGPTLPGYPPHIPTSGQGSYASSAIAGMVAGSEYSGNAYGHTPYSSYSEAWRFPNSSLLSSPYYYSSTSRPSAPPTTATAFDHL

[8] = molecular target: Heat shock protein HSP 90-alpha (Homo sapiens, UniProt P07900); format: functional, organism-based
Cytochrome P450 3A4 = Cytochrome P450 3A4 (Homo sapiens, UniProt P08684); conditions: Potency;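 note: confirmatory qHTS run detecting inhibitors and substrates of CYP3A4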
Sequence of Cytochrome P450 3A4 (P08684 whole entry): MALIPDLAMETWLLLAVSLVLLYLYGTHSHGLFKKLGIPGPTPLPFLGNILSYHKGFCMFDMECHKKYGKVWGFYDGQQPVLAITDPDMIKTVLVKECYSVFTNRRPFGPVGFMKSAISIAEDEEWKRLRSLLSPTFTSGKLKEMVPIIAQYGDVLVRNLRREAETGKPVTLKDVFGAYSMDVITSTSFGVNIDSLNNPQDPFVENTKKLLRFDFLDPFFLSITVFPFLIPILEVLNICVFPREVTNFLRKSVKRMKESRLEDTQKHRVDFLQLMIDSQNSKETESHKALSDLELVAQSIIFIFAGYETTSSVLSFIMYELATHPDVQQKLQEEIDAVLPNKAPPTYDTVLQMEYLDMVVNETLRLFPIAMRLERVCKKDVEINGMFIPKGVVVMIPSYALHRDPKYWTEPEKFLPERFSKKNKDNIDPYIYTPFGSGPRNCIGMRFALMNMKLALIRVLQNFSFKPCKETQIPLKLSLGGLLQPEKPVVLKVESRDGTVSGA

Large T antigen = Large T antigen (Simian virus 40, UniProt P03070); format: functional, Betapolyomavirus macacae;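 note: Confirmatory-stage PubChem screen for compounds that inhibit SV40 T antigen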
Sequence of Large T antigen (P03070 whole entry): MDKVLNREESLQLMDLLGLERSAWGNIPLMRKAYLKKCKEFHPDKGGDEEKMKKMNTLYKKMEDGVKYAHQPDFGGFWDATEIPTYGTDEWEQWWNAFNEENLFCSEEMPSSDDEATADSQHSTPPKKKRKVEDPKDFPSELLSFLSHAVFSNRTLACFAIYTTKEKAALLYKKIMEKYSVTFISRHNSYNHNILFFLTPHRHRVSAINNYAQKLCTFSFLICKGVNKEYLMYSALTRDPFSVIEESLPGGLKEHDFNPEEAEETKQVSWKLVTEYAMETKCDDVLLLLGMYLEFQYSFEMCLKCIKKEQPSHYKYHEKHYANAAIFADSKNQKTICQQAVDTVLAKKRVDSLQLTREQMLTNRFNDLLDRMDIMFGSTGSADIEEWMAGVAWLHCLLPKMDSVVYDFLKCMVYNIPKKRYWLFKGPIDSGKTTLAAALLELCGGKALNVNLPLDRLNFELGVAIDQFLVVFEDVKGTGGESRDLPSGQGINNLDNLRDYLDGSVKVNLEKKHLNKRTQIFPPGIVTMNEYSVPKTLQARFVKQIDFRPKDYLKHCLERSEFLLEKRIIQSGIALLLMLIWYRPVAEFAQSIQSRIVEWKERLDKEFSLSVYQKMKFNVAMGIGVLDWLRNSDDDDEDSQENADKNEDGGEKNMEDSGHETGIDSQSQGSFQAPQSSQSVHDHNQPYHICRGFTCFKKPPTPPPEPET

H4 = experiment: Luminescence Cell-Based Dose Response HTS to Identify Activators of 5'UTR Stem-Loop Driven Prion Protein mRNA Translation in H4 Neuroglioblastoma Cells. [Related pubchem assays: 1829 (Project Summary), 1814 (Primary HTS)]; format: functional; conditions: Homo sapiens
[9] = Luminescence Cell-Based Dose Response HTS to Identify Activators of Luciferase Translation or Activity in H4 […] Cells. [Related pubchem assays: 1829 (Project Summary), 1814 (Primary HTS)]; format: functional
[10] = molecular target: T2, Heat shock factor protein 1; experiment: decrease of HSF1-responsive luciferase luminescence – cell-based, NIH3T3, dose retest, confirmation (AID 2382); format: functional;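 note: NIH3T3 fibroblasts with HSF1-driven luciferase reporter stressed by proteasome inhibitor MG132; luminescence from HSF1-driven luciferase expression after 8 hours of MG132 stress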
[11] = Luminescence Cell-Based Dose Retest to Confirm Inhibitors of Cancer Stem Cells. [Related pubchem assays (depositor defined):AID2717, AID2721]; format: functional; conditions: Homo sapiens
[12] = Luminescence Cell-Based Dose Confirmation HTS to Identify Activators of 5'UTR Stem-Loop Driven Alpha-Synuclein mRNA Translation in H4 Neuroglioblastoma Cells. [Related pubchem assays: 1829 (Project Summary), 1814 (Primary HTS)]; format: functional
[13] = alpha-synuclein stem-loop luciferase translation blockers – H4 neuroglioma cells, luminescence, confirmation (AID 1988); format: functional, cell-based
[14] = luciferase reporter signal suppression in cells – H4 neuroglioma cells, luminescence, dose response (AID 1990); format: functional, cell-based
[15] = Luminescence Cell-Based Dose Response HTS to Identify Inhibitors of 5'UTR Stem-Loop Driven Prion Protein mRNA Translation in H4 Neuroglioblastoma Cells. [Related pubchem assays: 1827 (Project Summary), 1813 (Primary HTS)]; format: functional
[16] = viability of uninfected HEp-2 cells – cell-based, HTS, cytotoxicity control for RSV inhibitor project, dose response (AID 2410); format: functional; conditions: human respiratory syncytial virus
[17] = reduction of Shn3 3'UTR-driven luciferase in osteoblasts – cell-based, Clone20 osteoblasts, firefly luciferase, cherry-picked, dose response (AID 624132); format: functional;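 note: firefly luciferase luminescence from reporter carrying the Shn3 3'UTR in osteoblasts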
[18] = blockade of melanocortin 4 receptor signaling – cell-based, plate reader, cherry pick, counter-screen for LGR2 antagonist project, dose response (AID 743444); format: functional;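 note: transfected HEK 293 cells stimulated with alpha-MSH peptide; potency of inhibitors of the alpha-MSH evoked signal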
[19] = P. falciparum Dd2 growth inhibitors, dose response, SYBR Green, cherry-picked samples (AID 1159567); format: functional, cell-based

Compound: COc1ccc(-c2cc(C(F)(F)F)nc(S(=O)(=O)CCCC(=O)Nc3cccc(O)c3)n2)cc1OC
- AC50 [1]: 12.7 µM (active)
- AC50 [2]: 24.2 µM (active)
- AC50 [3]: 10.5 µM (active)
- EC50 (Protein RecA): 11.3 µM (active)
- AC50 [4]: 11.8 µM (active)
- EC50 [5]: 7.17 µM (active)
- AC50 [6]: 162 µM (active)

Compound: Cc1ccc(C(=O)c2cc([N+](=O)[O-])ccc2N2CCCCC2)c(C)c1
- IC50 [7]: > 80 µM (inactive)
- AC50 (Paired box protein Pax-8): 0.929 µM (active)

Compound: Cc1ccc(-c2nc3cccnc3s2)cc1NS(=O)(=O)c1ccc2c(c1)OCCO2
- AC50 [8]: 2.9 µM (active)

Compound: CC1(C)C(=O)C2C[C@]3(O)C4=CC(=O)OC(c5ccoc5)[C@]4(C)CCC3[C@](C)(C2=O)C1CC(=O)O (stereo partly drawn)
- AC50 (Cytochrome P450 3A4): 25.1 µM (inconclusive)

Compound: COc1ccc(N2CCN(C(=O)NC3CC(=O)N(c4ccc(OC)cc4)C3)CC2)cc1 (stereo not drawn)
- IC50 (Large T antigen): 43.3 µM (active)

Compound: CCCCN1Cc2c(nc3cc(-c4ccco4)nn3c2O)C1=O
- IC50 (Large T antigen): 35.6 µM (active)

Compound: Cc1nc(NCc2ccco2)c2c(C)c(C)sc2n1
- EC50 (H4): > 120 µM (not active)
- EC50 [9]: 8.42 µM (active)
- IC50 [7]: > 80 µM (inactive)
- EC50 [10]: 1.22 µM (active)
- AC50 [11]: 3.97 µM (active)
- EC50 [12]: > 120 µM (not active)

Compound: CC(=O)N1CC=CC1(CC(C)C)C(=O)NCc1ccc(C)o1 (stereo not drawn)
- AC50 (Cytochrome P450 3A4): 15.8 µM (inconclusive)

Compound: COC(=O)[C@@]1(C)C=C[C@@H](Cc2ccccc2)N1C(C)=O
- AC50 (Cytochrome P450 3A4): 31.6 µM (inconclusive)

Compound: COC(=O)Nc1ccc(S(=O)(=O)N2CCCc3ccccc32)cc1
- EC50 [13]: 0.37 µM (active)
- IC50 [7]: > 80 µM (inactive)
- AC50 [11]: 0.362 µM (active)
- EC50 [14]: 8.02 µM (active)
- EC50 [15]: 7.32 µM (active)

Compound: c1ccc(-c2ccc3c(c2)NCCN3)cc1
- EC50 (H4): 50.5 µM (active)
- IC50 (Large T antigen): 7.54 µM (active)
- EC50 [9]: 25 µM (active)
- EC50 [12]: 16.3 µM (active)

Compound: CCCCNc1nc(C)nc2c1nc(-c1ccccc1)n2CCCCN(CC)CC
- AC50 (Cytochrome P450 3A4): 12.6 µM (inconclusive)

Compound: COC(=O)c1cn(NC(=O)c2cc([N+](=O)[O-])ccc2F)c(=O)c2ccccc12
- IC50 [7]: > 80 µM (inactive)
- CC50 [16]: 3.87 µM (active)
- AC50 [17]: 2.85 µM (active)

Compound: Cc1cccc(N2CCN(C(=O)c3c(-c4ccccc4Cl)noc3C)CC2)c1C
- IC50 [7]: > 80 µM (inactive)

Compound: NC(c1ccccc1)c1csc(NC(=O)Nc2cccc(Cl)c2)n1 (stereo not drawn)
- AC50 [1]: 16.3 µM (active)
- AC50 [2]: 21.1 µM (active)
- AC50 [18]: 36.7 µM (active)
- AC50 [3]: 50.9 µM (active)
- AC50 [4]: 28.8 µM (active)

Compound: Cc1occc1C(=O)N/N=C/C=C/c1ccc(N(C)C)cc1
- IC50 (Large T antigen): 19.7 µM (active)

Compound: CCCCCCN(C(=O)CCCCCN1C(=O)NC(c2ccc(-c3ccccc3)cc2)C(C(=O)OCc2ccccc2)=C1C)C(C(=O)NCCCC)c1ccc(OCC(=O)O)c(C(=O)O)c1 (stereo not drawn)
- AC50 (Cytochrome P450 3A4): 15.8 µM (inconclusive)

Compound: Cc1ccccc1OCCCN1CCC(C(O)(c2ccccc2)c2ccccc2)CC1
- AC50 [1]: 22.6 µM (active)
- AC50 [2]: 25.7 µM (active)
- AC50 [18]: 18.5 µM (active)
- AC50 [3]: 16.1 µM (active)
- AC50 [4]: 19.9 µM (active)

Compound: CC(C)NC(=O)N1[C@H](CO)[C@@H](c2ccccc2)C12CN(Cc1ccc(Cl)cc1)C2
- AC50 [19]: 4.74 µM (active)

Compound: CO[C@@H]1CN(C)C(=O)c2cc(NC(=O)c3nc4ccccc4s3)ccc2OC[C@@H](C)N(Cc2ccccc2)C[C@H]1C
- AC50 [19]: 3.99 µM (active)

Compound: Nc1ccc(O)cc1 [4-AMINOPHENOL]
- EC50 (Protein RecA): > 380 µM (inconclusive)
- AC50 (Cytochrome P450 3A4): 25.1 µM (inconclusive)
- AC50 [6]: > 380 µM (inactive)

Compound: C=CC(C1=CC(=O)C(OC)=CC1=O)c1ccc(O)cc1 (stereo not drawn) [DALBERGIONE, 4-METHOXY-4'-HYDROXY-]
- AC50 (Cytochrome P450 3A4): 25.1 µM (inconclusive)
